# Legend:
# HEp-2 cells = experiment: Enzyme-mediated immunohistochemical detection (SLE kit) on fixed HEp-2 cells; format: cell-based, human; details: 30 minute incubation, 100 mM MOPS pH 7.5, biotinylated alkaline phosphatase
# Procedure: 1 ). Cells and Detection Kit. […] The kit includes slides containing wells of fixed HEp-2 cells (human epithelial cells) and a positive control consisting of anti-DNA antibodies isolated from humans with the disease. Normally, the slides are incubated with sera from patients and then probed with fluorescein-conjugated anti-human antibodies. Using this method, the nuclei of those cells that have been incubated with SLE-positive sera appear to have typical morphology that is identified by their green fluorescence using standard fluorescence microscopy whereas the negative controls have no fluorescence.
# 2). Sample Preparation. A four-step incubation protocol is used to prepare the slides. All reagents are diluted in 1% bovine serum albumin (BSA) in TRIS-buffered saline, pH 7.5 (TBS; 100 mM NaCl, 100 mM TRIS). Each incubation is 1/2 hour. Slides are washed three times with TBS between incubations. A typical procedure consists of the following steps:
# 1. The wells are incubated with either SLE-positive or -negative human sera (provided in the kit).
# 2. The wells are incubated with biotinylated goat anti-human ([…]).
# 3. The wells are incubated with streptavidin (50 μg/mL), a reagent that has four binding sites for biotin. Excess binding sites are available for binding the next reagent.
# 4. The wells are incubated with a biotinylated enzyme that will remove BLOCK from the subject substrates. […]
# alkaline phosphatase = alkaline phosphatase (Bos taurus, UniProt P19111); format: biochemical; design: mature GPI-type homodimer; details: 0.1M TRIS pH 10.3, 50 mM NaCl, 10 mM MgCl2, 0.1 mM ZnCl2; double-reciprocal plot
# Procedure: As compared with other synthetic substrates, the fluorogenic precipitating substrates described in this invention normally have high enzymatic turnover rates and moderate affinities for the enzymes. Turnover rates of the substrates can be determined as in Example 10 and expressed as micromoles of product per minute per milligram protein (k2, in units of μmol·min^-1 ·mg^-1). The affinity of the substrate is determined by its dissociation constant, KM, in millimolar units. The enzymes can bind to and catalyze conversion of the soluble substrates into detectable reaction products that are apparently less soluble and will precipitate in aqueous solutions. The preferred detectable reaction products are fluorescent precipitates. The precipitation, however, and thus fluorescence, depends on the reaction product concentration or the initial substrate concentration used, as well as the ionization state of the product's phenol group. There are two parameters determining the precipitation, i.e. critical concentration (Mc) and pH dependence (pKa). A method for determination of these parameters is given in Example 11. Table 10 gives the relevant parameters for the enzymatic reaction and precipitation of quinazolinone-based alkaline phosphatase substrates.
# 4). Kinetic assay of some of the substrates. The specific activity (k2, in a unit of micromole per minute per milligram protein) and Michaelis constant (KM, in a unit of millimole) for hydrolysis of the substrates by the enzyme are listed in Table 10. All of the specific enzymatic reactions are made in the following buffers:
# For alkaline phosphatase: 0.1M TRIS pH 10.3 containing 50 mM NaCl, 10 mM MgCl2 and 0.1 mM ZnCl2.
# Because the kinetic assay involves variable amounts of precipitate with variable light scattering, measurement in the fluorometer as described above cannot be used here. Instead, a fluorescence plate reader with front-face measurement geometry such as the CytoFluor™ 2300 (Millipore, Bedford, Mass.) is preferred for quantitating the precipitate. The following protocol illustrates the kinetic assay.
# 4.1 ). In a 96-well plate, pipette 200 μL of a phosphatase substrate in the alkaline phosphatase reaction buffer with a final concentration of 2 to 6 mM, then add 50 μL 1 mg/mL alkaline phosphatase. […] Fluorescence of the precipitate is measured in the CytoFluor with appropriate sensitivity and excitation and emission settings as have been determined with the fluorometer. The fluorescence signal versus the amount of the precipitate is then established for each substrate.
# 4.2). […] Read the fluorescence of the resulting precipitate after 10 minutes reaction time and calculate the precipitate formation rate per minute by use of the determined fluorescence signal versus the amount of the precipitate. […]
# Sequence of alkaline phosphatase (P19111 20-506): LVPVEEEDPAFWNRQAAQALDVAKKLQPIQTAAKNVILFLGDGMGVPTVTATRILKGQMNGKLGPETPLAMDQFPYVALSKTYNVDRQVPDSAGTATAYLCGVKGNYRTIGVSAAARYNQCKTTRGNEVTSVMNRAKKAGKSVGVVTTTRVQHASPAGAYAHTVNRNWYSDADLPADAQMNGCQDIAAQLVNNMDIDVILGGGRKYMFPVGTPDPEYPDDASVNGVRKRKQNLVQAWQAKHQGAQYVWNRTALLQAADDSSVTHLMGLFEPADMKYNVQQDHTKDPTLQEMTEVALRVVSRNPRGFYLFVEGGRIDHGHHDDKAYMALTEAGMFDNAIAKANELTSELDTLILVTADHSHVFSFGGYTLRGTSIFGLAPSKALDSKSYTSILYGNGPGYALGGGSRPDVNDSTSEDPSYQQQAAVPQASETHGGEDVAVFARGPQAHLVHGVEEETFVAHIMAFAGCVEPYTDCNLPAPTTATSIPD
smiles,measurement,setting,value
"O=c1[nH]c(-c2cc(Cl)ccc2OP(=O)(O)O)nc2ccc(Cl)cc12 [8e, Ammonium 2-(5'-chloro-2'-phosphoryloxyphenyl)-6-chloro-4-(3H)-quinazolinone]",staining of cells incubated with SLE-positive sera,HEp-2 cells,brightly fluorescent nuclei
same,staining of wells incubated with negative sera,HEp-2 cells,No signal is detected
same,"k2 (specific activity, turnover rate)",alkaline phosphatase,618.60 µmol/min/mg
